Data as given in US20250195551A1 (L4 BIO LLC, priority 2023, published 2025).

Assay: Excipient compatibility study
Type: physicochemical
Details: for Chromatographic purity by HPLC (Assay) / Total Impurities % (excluding API impurities %): 40° C./75% RH
Experimental: An excipient compatibility study was initiated with selected excipients ranging from oils to surfactants based on equilibrium solubility results (Table 2). […] After solutions were prepared using a hand-held homogenizer (Model IKAT10 Ultra-Turrax), each excipient sample was aliquoted in amber vials, approximately 10% water was added in each excipient aliquot, and bench scale gel stripe OET-004037 was also made and added in a separate set of aliquot samples at approximately 1:1 w/w.
All samples were stored at 40° C./75% relative humidity (RH) condition (Model: Lunaire environmental chamber) and tested by developmental reversed phase HPLC method for Assay/Related Substances at T=0, 2 weeks, and 1 month.

[1] = in Fractionated coconut oil, Sample: 10% water, T = 2 weeks
[2] = in Fractionated coconut oil, Sample: Control, T = 0
[3] = in Fractionated coconut oil, Sample: Control, T = 2 weeks
[4] = in Fractionated coconut oil, Sample: Gel Stripe (1:1 w/w), T = 2 weeks
[5] = in Labrasol ALF, Sample: 10% water, T = 1 months
[6] = in Labrasol ALF, Sample: 10% water, T = 2 weeks
[7] = in Labrasol ALF, Sample: Control, T = 0
[8] = in Labrasol ALF, Sample: Control, T = 1 months
[9] = in Labrasol ALF, Sample: Control, T = 2 weeks
[10] = in Labrasol ALF, Sample: Gel Stripe (1:1 w/w), T = 1 months
[11] = in Labrasol ALF, Sample: Gel Stripe (1:1 w/w), T = 2 weeks
[12] = in Maisine CC, Sample: 10% water, T = 1 months
[13] = in Maisine CC, Sample: 10% water, T = 2 weeks
[14] = in Maisine CC, Sample: Control, T = 0
[15] = in Maisine CC, Sample: Control, T = 1 months
[16] = in Maisine CC, Sample: Control, T = 2 weeks
[17] = in Maisine CC, Sample: Gel Stripe (1:1 w/w), T = 1 months
[18] = in Maisine CC, Sample: Gel Stripe (1:1 w/w), T = 2 weeks
[19] = in Masester E8120, Sample: 10% water, T = 1 months
[20] = in Masester E8120, Sample: 10% water, T = 2 weeks
[21] = in Masester E8120, Sample: Control, T = 0
[22] = in Masester E8120, Sample: Control, T = 1 months
[23] = in Masester E8120, Sample: Control, T = 2 weeks
[24] = in Masester E8120, Sample: Gel Stripe (1:1 w/w), T = 1 months
[25] = in Masester E8120, Sample: Gel Stripe (1:1 w/w), T = 2 weeks
[26] = in Oleic acid, Sample: 10% water, T = 2 weeks
[27] = in Oleic acid, Sample: Control, T = 0
[28] = in Oleic acid, Sample: Control, T = 2 weeks
[29] = in Oleic acid, Sample: Gel Stripe (1:1 w/w), T = 2 weeks
[30] = in PEG 400, Sample: 10% water, T = 2 weeks

ivermectin
Chemical compatibility with the API (PEG 400 as co-solvent): poor chemical compatibility | Chemical compatibility with the API (Vitamin E TPGS compared with Tween 80 and Labrasol ALF (surfactants)): best chemical compatibility | Chromatographic purity by HPLC (Assay) [1]: 97.83 % area | Total Impurities % (excluding API impurities %) [1]: <LOQ | Chromatographic purity by HPLC (Assay) [2]: 95.61 % area | Total Impurities % (excluding API impurities %) [2]: <LOQ | Chromatographic purity by HPLC (Assay) [3]: 97.94 % area | Total Impurities % (excluding API impurities %) [3]: <LOQ | Chromatographic purity by HPLC (Assay) [4]: 94.42 % area | Total Impurities % (excluding API impurities %) [4]: 3.28 % adjusted area | Chromatographic purity by HPLC (Assay) [5]: 89.91 % area | Total Impurities % (excluding API impurities %) [5]: 8.76 % adjusted area | Chromatographic purity by HPLC (Assay) [6]: 93.91 % area | Total Impurities % (excluding API impurities %) [6]: 3.46 % adjusted area | Chromatographic purity by HPLC (Assay) [7]: 97.74 % area | Total Impurities % (excluding API impurities %) [7]: <LOQ | Chromatographic purity by HPLC (Assay) [8]: 81.35 % area | Total Impurities % (excluding API impurities %) [8]: 20.49 % adjusted area | Chromatographic purity by HPLC (Assay) [9]: 89.16 % area | Total Impurities % (excluding API impurities %) [9]: 8.67 % adjusted area | Chromatographic purity by HPLC (Assay) [10]: 96.49 % area | Total Impurities % (excluding API impurities %) [10]: 1.06 % adjusted area | Chromatographic purity by HPLC (Assay) [11]: 97.11 % area | Total Impurities % (excluding API impurities %) [11]: 0.30 % adjusted area | Chromatographic purity by HPLC (Assay) [12]: 96.83 % area | Total Impurities % (excluding API impurities %) [12]: 0.69 % adjusted area | Chromatographic purity by HPLC (Assay) [13]: 95.90 % area | Total Impurities % (excluding API impurities %) [13]: 0.45 % adjusted area | Chromatographic purity by HPLC (Assay) [14]: 97.13 % area | Total Impurities % (excluding API impurities %) [14]: 0.58 % adjusted area | Chromatographic purity by HPLC (Assay) [15]: 96.82 % area | Total Impurities % (excluding API impurities %) [15]: 0.71 % adjusted area | Chromatographic purity by HPLC (Assay) [16]: 96.00 % area | Total Impurities % (excluding API impurities %) [16]: 0.35 % adjusted area | Chromatographic purity by HPLC (Assay) [17]: 96.94 % area | Total Impurities % (excluding API impurities %) [17]: 0.58 % adjusted area | Chromatographic purity by HPLC (Assay) [18]: 96.15 % area | Total Impurities % (excluding API impurities %) [18]: 0.33 % adjusted area | Chromatographic purity by HPLC (Assay) [19]: 91.68 % area | Total Impurities % (excluding API impurities %) [19]: 6.60 % adjusted area | Chromatographic purity by HPLC (Assay) [20]: 95.11 % area | Total Impurities % (excluding API impurities %) [20]: 2.27 % adjusted area | Chromatographic purity by HPLC (Assay) [21]: 97.58 % area | Total Impurities % (excluding API impurities %) [21]: 0.17 % adjusted area | Chromatographic purity by HPLC (Assay) [22]: 97.06 % area | Total Impurities % (excluding API impurities %) [22]: 0.45 % adjusted area | Chromatographic purity by HPLC (Assay) [23]: 96.81 % area | Total Impurities % (excluding API impurities %) [23]: 0.58 % adjusted area | Chromatographic purity by HPLC (Assay) [24]: 97.31 % area | Total Impurities % (excluding API impurities %) [24]: 0.18 % adjusted area | Chromatographic purity by HPLC (Assay) [25]: 97.35 % area | Total Impurities % (excluding API impurities %) [25]: 0.11 % adjusted area | Chromatographic purity by HPLC (Assay) [26]: 86.02 % area | Total Impurities % (excluding API impurities %) [26]: 9.89 % adjusted area | Chromatographic purity by HPLC (Assay) [27]: 99.60 % area | Total Impurities % (excluding API impurities %) [27]: <LOQ | Chromatographic purity by HPLC (Assay) [28]: 83.55 % area | Total Impurities % (excluding API impurities %) [28]: 17.27 % adjusted area | Chromatographic purity by HPLC (Assay) [29]: 83.73 % area | Total Impurities % (excluding API impurities %) [29]: 11.82 % adjusted area | Chromatographic purity by HPLC (Assay) [30]: 94.35 % area | Total Impurities % (excluding API impurities %) [30]: 3.15 % adjusted area | Chromatographic purity by HPLC (Assay) (in PEG 400, Sample: Control, T = 0): 97.58 % area
